Data: US11866416B2, “Streptococcus mutans glucosyl transferase inhibitors for dental caries therapy” (UAB Research Foundation, priority 2018, dated 2024)
Converted amounts (≈) assume the structure as drawn. Like-named read-outs stand apart in the source and are kept apart here.

Key:
S. mutans = assay: microbe, parasite or virus in culture; format: cell-based, Streptococcus mutans; conditions: for MIC50: Streptococcus mutans; for Selectivity: growth versus biofilm
Procedure: Cell viability of S. mutans, S. gordonii, S. sanguinis, Aggregatibacter actinomycetemcomitans and Actinomyces. […] The number of colony-forming units (CFU) per milliliter of each sample treated with selected compounds at different concentrations was enumerated after incubation for 24 h at 37° C. and compared to the values obtained from the DMSO control group. Overnight broth cultures were transferred by 1:50 dilutions into fresh THB medium and were allowed to grow until mid-exponential phase (OD470 nm 0.6) before transfer to 96-well plates containing desired concentration of the compound. After 16 h incubation, bacterial growth was measured at OD470, and normalized to the DMSO control (100%).
Cell viability of S. mutans and commensal S. gordonii and S. sanguinis. Effects of lead small molecules on cell viability were examined. The number of colony-forming units (CFU) per milliliter for each compound at different concentrations was determined after incubation for 24 h at 37° C. and compared to the values obtained from the DMSO control group.
Cell viability of S. mutans and commensal S. gordonii and S. sanguinis. […] DMSO served as a control group and provided a relative comparison for the number of colony-forming units (CFU) per milliliter for each compound at different concentrations was determined after incubation for 24 h at 37° C. The final concentration of DMSO used in the assays was 1%.

S. mutans biofilm = S. mutans biofilm formation and inhibition assay (96-well plates, crystal violet); format: cell-based, Streptococcus mutans
Procedure: Biofilm assays using 96-well flat-bottom polystyrene microtiter plates were performed to evaluate S. mutans biofilm formation at various conditions as described (Liu et al. (2011) Antimicrobial Agents and Chemotherapy 55, 2679; Zhang et al. (2015) International Journal of Antimicrobial Agents 46, 174), the disclosures of which are incorporated herein by reference in their entirety). Each assay was replicated three times. Compounds that inhibited biofilm formation at minimum concentration (MBIC) were determined by serial dilutions.
S. mutans biofilm formation and inhibition assays. […] Each assay was replicated three times. Minimum biofilm inhibitory concentration (MBIC) of compounds was determined by serial dilutions.
S. mutans biofilm formation and inhibition assays. Biofilm assays using 96-well flat-bottom polystyrene microtiter plates were performed to evaluate S. mutans biofilm formation at various conditions as described. Each assay was replicated […]. Compounds that inhibited 50% biofilm formation were determined by serial dilutions.
S. mutans biofilm formation and inhibition assays. A well-established protocol to study S. mutans biofilm formation in 96-well flat-bottom polystyrene microtiter plates was used, in triplicate (Mattos-Graner, R. O.; Napimoga, M. H.; Fukushima, K.; Duncan, M. J.; Smith, D. J., Comparative analysis of Gtf isozyme production and diversity in isolates of Streptococcus mutans with different biofilm growth phenotypes. Journal of clinical microbiology 2004, 42 (10), 4586-4592). The stock solutions were made up in 100% DMSO, and final concentration of DMSO used in the assays was 1%. Minimum biofilm inhibitory concentration (MBIC) of compounds was determined by serial dilutions.

[1] = Table 2, >300 = no inhibition up to 300 μM, read-out: Growth Inhibition MIC50
[2] = Streptococcus mutans, Table 2, read-out: Biofilm Inhibition IC50
[3] = Streptococcus mutans, Table 1, >500 = no inhibition up to 500 μM, read-out: Biofilm Inhibition IC50
[4] = Table 4, stilbenes, average of at least 5 measurements, NI = no inhibition, read-out: Growth MIC50
[5] = Table 8, stilbenes, average of at least 5 measurements, NI = no inhibition
[6] = Streptococcus mutans, Table 4, stilbenes, NI = no inhibition, read-out: Biofilm IC50
[7] = Streptococcus mutans, Table 8, stilbenes, NI = no inhibition, read-out: Biofilm IC50
[8] = Table 6, chalcones, 200 μM, NI = no inhibition

SMILES	MIC50 (S. mutans; [1])	IC50 (S. mutans biofilm; [2])	IC50 (S. mutans biofilm; [3])	other results
NCc1ccccc1NC(=O)c1cc2cc([N+](=O)[O-])ccc2[nH]1 [Compound 298C10]	> 300 µM	98.3 µM	–	–
NC(=O)c1cccc(NC(=O)c2cc3ccccc3s2)c1 [Compound 3X]	> 300 µM	116 µM	116 µM	–
[N-]=[N+]=Nc1ccc2sc(C(=O)Nc3ccccc3C(N)=O)cc2c1 [SN-II-14]	> 300 µM	57.2 µM	–	–
NC(=O)c1ccccc1C(=O)Nc1cnc2ccccc2c1 [SN-I-285]	> 300 µM	102 µM	–	–
[N-]=[N+]=Nc1ccc(NC(=O)c2cc3cc([N+](=O)[O-])ccc3s2)cc1 [SN-I-287]	> 300 µM	250 µM	–	–
O=C(O)c1ccc(NC(=O)c2cc3ccccc3s2)cc1 [SN-I-272VH]	> 300 µM	180 µM	–	–
O=C(/C=C/c1ccc(O)cc1O)c1cccc(O)c1 [RZ-1-86]	–	–	–	MIC50 (S. mutans; Table 3, >300 = no inhibition up to 300 μM, NI = no inhibition up to 400 μM, read-out: Growth Inhibition MIC50): 469 ± 16 µM (≈ 120 µg/mL); IC50 (S. mutans biofilm; Streptococcus mutans, Table 3, read-out: Biofilm Inhibition IC50): 32 ± 5 µM
COC(=O)c1ccc(NC(=O)c2cnc3ccccc3c2)cc1 [Compound 3S]	> 300 µM	92.3 µM	92.3 µM	–
NCc1ccccc1NC(=O)c1cccc2ccccc12 [AN]	> 300 µM	93.3 µM	93.3 µM	–
NC(=O)c1cccc(NC(=O)c2cccc3ccccc23)c1 [BS]	> 300 µM	195 µM	195 µM	–
N=C(N)c1ccc(/C=C/c2ccc(C(=N)N)cc2O)cc1 [Entry 5]	–	–	–	MIC50 (S. mutans; [4]): 179 ± 23 µM (≈ 50.2 µg/mL); Growth MIC50 (S. mutans; [5]): 179 ± 23 µM; IC50 (S. mutans biofilm; [6]): 104 ± 7 µM; IC50 (S. mutans biofilm; [7]): 104 ± 7 µM
Oc1cc(O)cc(/C=C/c2ccc(O)c(O)c2)c1 [Compound 8]	–	–	–	Growth inhibition 200 μM (%) (S. mutans; [8]): 82 ± 2%; Biofilm inhibition 200 μM (%) (S. mutans biofilm; [8]): 81 ± 2%; IC50 (S. mutans biofilm; read-out: S. mutans biofilm IC50): 52 µM
COc1cc(O)cc(/C=C/c2ccccc2)c1 [Entry 6]	–	–	–	MIC50 (S. mutans; [4]): 546 ± 25 µM (≈ 124 µg/mL); Selectivity (S. mutans; Table 4, stilbenes): 1.1; Growth MIC50 (S. mutans; [5]): 546 ± 25 µM; Selectivity (S. mutans; Table 8, stilbenes): 1.1; IC50 (S. mutans biofilm; [6]): 477 ± 51 µM; IC50 (S. mutans biofilm; [7]): 477 ± 51 µM
